{
  "source": "ChEMBL document CHEMBL3244200",
  "about": "“8-Carboxy-6-sulfamyldibenz[b,f][1,4]oxazepines and -thiazepines as potential high-ceiling diuretics” (1978)",
  "key": {"[1]": {"system": "Rattus norvegicus", "experiment": "High-ceiling diuretic activity in Wistar rat assessed as drug to urea ratio to increase Na+ level in urine at 50 mg/kg, po measured for 5 hrs by flame photometric analysis (reference value: 0.47 +/- 0.07 no unit)", "assay_type": "functional"}, "[2]": {"system": "Rattus norvegicus", "experiment": "High-ceiling diuretic activity in Wistar rat assessed as drug to urea ratio to increase K+ level in urine at 50 mg/kg, po measured for 5 hrs by flame photometric analysis (reference value: 0.57 +/- 0.08 no unit)", "assay_type": "functional"}, "[3]": {"system": "Rattus norvegicus", "experiment": "High-ceiling diuretic activity in Wistar rat assessed as drug to urea ratio to cause diuresis at 50 mg/kg, po measured for 5 hrs (reference value: 0.44 +/- 0.05 no unit)", "assay_type": "functional, Urine"}, "[4]": {"system": "Canis familiaris", "experiment": "High-ceiling diuretic activity in Beagle dog at 20 mg/kg, po", "assay_type": "functional, organism-based", "set-up": "dose 20 mg/kg", "details": "Canis lupus familiaris, Urine"}},
  "note": "The source made the active and inactive calls. No cut-off for these calls is given here.",
  "data": [
    {"smiles": "NS(=O)(=O)c1cc(C(=O)O)cc2c1Sc1ccccc1C(=O)N2", "values": [
      {"measurement": "Ratio", "setting": "[1]", "result": 0.71},
      {"measurement": "Ratio", "setting": "[2]", "result": 0.62},
      {"measurement": "Ratio", "setting": "[3]", "result": 0.56},
      {"measurement": "Activity", "setting": "[4]", "result": "inactive"}
    ]},
    {"smiles": "CCCCNc1cc(C(=O)O)cc(S(N)(=O)=O)c1Oc1ccccc1", "note": "[BUMETANIDE]", "values": [
      {"measurement": "Ratio", "setting": "[1]", "result": 4.66},
      {"measurement": "Ratio", "setting": "[2]", "result": 0.97},
      {"measurement": "Ratio", "setting": "[3]", "result": 2.6}
    ]},
    {"smiles": "NS(=O)(=O)c1cc(C(=O)O)cc2c1Sc1ccccc1CN2", "values": [
      {"measurement": "Ratio", "setting": "[1]", "result": 0.13},
      {"measurement": "Ratio", "setting": "[2]", "result": 0.05},
      {"measurement": "Ratio", "setting": "[3]", "result": 0.07},
      {"measurement": "Activity", "setting": "[4]", "result": "inactive"}
    ]},
    {"smiles": "NS(=O)(=O)c1cc(C(=O)O)cc2c1Oc1ccccc1CN2", "values": [
      {"measurement": "Ratio", "setting": "[1]", "result": 1},
      {"measurement": "Ratio", "setting": "[2]", "result": 0.9},
      {"measurement": "Ratio", "setting": "[3]", "result": 0.47}
    ]},
    {"smiles": "COC(=O)c1cc2c(c(S(N)(=O)=O)c1)Oc1ccccc1C(=O)N2", "values": [
      {"measurement": "Ratio", "setting": "[1]", "result": 1.24},
      {"measurement": "Ratio", "setting": "[2]", "result": 0.63},
      {"measurement": "Ratio", "setting": "[3]", "result": 0.79}
    ]},
    {"smiles": "COC(=O)c1cc2c(c(S(N)(=O)=O)c1)Sc1ccccc1C(=O)N2", "values": [
      {"measurement": "Ratio", "setting": "[1]", "result": 0.42},
      {"measurement": "Ratio", "setting": "[2]", "result": 0.41},
      {"measurement": "Ratio", "setting": "[3]", "result": 0.25}
    ]}
  ]
}
